The results in this text go back to patent US10711002B2, “Purine compounds and method for the treatment of cancer” (THE ROYAL INSTITUTION FOR THE ADVANCEMENT OF …, priority 2016, dated 2020).

What all share (assay): High-throughput kinase assay
Format in all cases: biochemical

One test concerns the target PDGFRA (PDGFR alpha) (Homo sapiens, UniProt P16234). To be noted: read-out: Percent inhibition of kinase activity in vitro, PDGFRA (PDGFR alpha); for inhibition at 0.5 µM: 500 nM; for inhibition at 0.1 µM: 100 nM. The protocol: (§1) Screening of Compounds 1-4 against several kinases identified two prominent targets of these compounds as the Aurora A kinase and calcium dependent protein kinase C isoforms α, βI, βII and […] (Tables 1 to 3). IC50s for these two targets were obtained by plotting inhibition levels at 500 nM, 100 nM, 50 nM and 10 nM (FIG. 3). These kinases are directly involved in pathways controlling cell differentiation programs, metastasis signaling, as well as EMT and CSC programming and their overexpression was reported to predict decreased metastasis-free survival.

The target of the next test is PTK2 (FAK) (Homo sapiens, UniProt Q05397). To be noted: read-out: Percent inhibition of kinase activity in vitro, PTK2 (FAK); for inhibition at 0.1 µM: 100 nM; for inhibition at 0.5 µM: 500 nM. As to the method:
as §1

Another test deals with FRAP1 (mTOR) (Homo sapiens, UniProt P42345). To be noted: read-out: Percent inhibition of kinase activity in vitro, FRAP1 (mTOR); for inhibition at 0.5 µM: 500 nM; for inhibition at 0.1 µM: 100 nM. As to the method:
as §1

Another test deals with ERBB2 (HER2) (Homo sapiens, UniProt P04626). To be noted: 500 nM; read-out: Percent inhibition of kinase activity in vitro, ERBB2 (HER2). As to the method: as §1
The target of another test is T1, AURKC (Aurora C) (Homo sapiens, UniProt Q9UQB9).
T1 sequence (Q9UQB9 1-309): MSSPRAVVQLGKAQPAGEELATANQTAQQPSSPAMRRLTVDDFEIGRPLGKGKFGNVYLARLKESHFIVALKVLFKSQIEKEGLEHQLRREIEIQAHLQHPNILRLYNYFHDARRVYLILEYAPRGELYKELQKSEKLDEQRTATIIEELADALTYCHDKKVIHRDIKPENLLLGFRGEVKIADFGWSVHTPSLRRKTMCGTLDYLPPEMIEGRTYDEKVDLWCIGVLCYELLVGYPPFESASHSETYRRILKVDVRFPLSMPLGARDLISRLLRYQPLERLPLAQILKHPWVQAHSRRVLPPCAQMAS
To be noted: read-out: Percent inhibition of kinase activity in vitro, AURKC (Aurora C); for inhibition at 0.1 µM: 100 nM; for inhibition at 0.5 µM: 500 nM. The protocol:
as §1

The next test concerns the target BRAF-ZLYTE-100 (Homo sapiens, UniProt P15056). To be noted: 100 nM; read-out: Percent inhibition of kinase activity in vitro, BRAF-ZLYTE-100. The protocol:
as §1

In another test the target is PRKCA (PKC alpha) (Homo sapiens, UniProt P17252). To be noted: for inhibition at 0.1 µM: 100 nM; for inhibition at 0.5 µM: 500 nM; for inhibition at 0.05 µM: 50 nM. As to the method:
as §1

In a further test the target is RET (Homo sapiens, UniProt P07949). To be noted: read-out: Percent inhibition of kinase activity in vitro, RET; for inhibition at 0.1 µM: 100 nM; for inhibition at 0.5 µM: 500 nM. The protocol:
as §1

For another test, the target named is FGFR1 (Homo sapiens, UniProt P11362). To be noted: read-out: Percent inhibition of kinase activity in vitro, FGFR1; for inhibition at 0.5 µM: 500 nM; for inhibition at 0.1 µM: 100 nM. The protocol: as §1
In another test the target is MET (cMet) (Homo sapiens, UniProt P08581). To be noted: read-out: Percent inhibition of kinase activity in vitro, MET (cMet); for inhibition at 0.1 µM: 100 nM; for inhibition at 0.5 µM: 500 nM. As to the method: as §1
Sequence of MET (cMet) (P08581 25-1390): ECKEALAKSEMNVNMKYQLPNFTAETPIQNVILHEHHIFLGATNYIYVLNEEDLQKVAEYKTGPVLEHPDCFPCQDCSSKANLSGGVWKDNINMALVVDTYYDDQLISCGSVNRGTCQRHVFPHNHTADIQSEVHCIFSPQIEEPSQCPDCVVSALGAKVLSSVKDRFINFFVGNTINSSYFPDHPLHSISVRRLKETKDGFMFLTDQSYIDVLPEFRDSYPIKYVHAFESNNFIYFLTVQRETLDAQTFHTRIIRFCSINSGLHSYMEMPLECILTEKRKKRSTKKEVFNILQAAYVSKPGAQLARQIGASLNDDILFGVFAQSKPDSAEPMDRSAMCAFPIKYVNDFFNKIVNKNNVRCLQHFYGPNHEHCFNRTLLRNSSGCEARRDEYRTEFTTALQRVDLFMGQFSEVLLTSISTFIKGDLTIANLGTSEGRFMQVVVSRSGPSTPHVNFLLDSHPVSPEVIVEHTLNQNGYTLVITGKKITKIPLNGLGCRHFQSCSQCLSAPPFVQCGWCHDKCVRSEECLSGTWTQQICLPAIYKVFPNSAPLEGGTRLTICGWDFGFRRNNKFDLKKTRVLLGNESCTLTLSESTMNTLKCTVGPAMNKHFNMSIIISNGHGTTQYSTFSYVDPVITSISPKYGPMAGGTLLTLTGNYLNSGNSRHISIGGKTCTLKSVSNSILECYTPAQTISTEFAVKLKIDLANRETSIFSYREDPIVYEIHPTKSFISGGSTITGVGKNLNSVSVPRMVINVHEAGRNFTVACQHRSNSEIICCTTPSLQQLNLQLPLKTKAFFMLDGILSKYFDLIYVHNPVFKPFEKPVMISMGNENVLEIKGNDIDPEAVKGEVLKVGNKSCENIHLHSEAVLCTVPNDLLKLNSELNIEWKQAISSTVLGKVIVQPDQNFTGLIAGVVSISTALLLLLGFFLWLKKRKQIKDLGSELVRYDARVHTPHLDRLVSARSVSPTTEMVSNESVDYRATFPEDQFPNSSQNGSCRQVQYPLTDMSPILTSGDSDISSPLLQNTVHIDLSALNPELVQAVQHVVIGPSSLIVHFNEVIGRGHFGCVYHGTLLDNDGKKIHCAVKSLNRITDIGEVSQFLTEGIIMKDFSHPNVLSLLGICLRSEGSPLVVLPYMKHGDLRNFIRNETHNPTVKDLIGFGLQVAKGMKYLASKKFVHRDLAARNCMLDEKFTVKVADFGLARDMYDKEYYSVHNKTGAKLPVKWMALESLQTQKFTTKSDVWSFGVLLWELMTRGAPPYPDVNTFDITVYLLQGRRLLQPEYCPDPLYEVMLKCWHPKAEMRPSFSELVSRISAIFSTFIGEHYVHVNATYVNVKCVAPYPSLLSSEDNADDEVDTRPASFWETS
A further test has as its target EGFR (ErbB1) (Homo sapiens, UniProt P00533). To be noted: read-out: Percent inhibition of kinase activity in vitro, EGFR (ErbB1); for inhibition at 0.5 µM: 500 nM; for inhibition at 0.1 µM: 100 nM. The protocol: as §1
For another test, the target named is JAK2 (Homo sapiens, UniProt O60674). To be noted: read-out: Percent inhibition of kinase activity in vitro, JAK2; for inhibition at 0.1 µM: 100 nM; for inhibition at 0.5 µM: 500 nM. The protocol: as §1
A further test addresses YES1 (Homo sapiens, UniProt P07947). To be noted: read-out: Percent inhibition of kinase activity in vitro, YES1; for inhibition at 0.1 µM: 100 nM; for inhibition at 0.5 µM: 500 nM. The protocol: as §1
In another test the target is SRC (Homo sapiens, UniProt P12931). To be noted: read-out: Percent inhibition of kinase activity in vitro, SRC; for inhibition at 0.1 µM: 100 nM; for inhibition at 0.5 µM: 500 nM. As to the method:
as §1

The target of a further test is AKT1 (PKB alpha) (Homo sapiens, UniProt P31749). To be noted: read-out: Percent inhibition of kinase activity in vitro, AKT1 (PKB alpha); for inhibition at 0.1 µM: 100 nM; for inhibition at 0.5 µM: 500 nM. As to the method: as §1
Sequence of AKT1 (PKB alpha) (P31749 whole entry): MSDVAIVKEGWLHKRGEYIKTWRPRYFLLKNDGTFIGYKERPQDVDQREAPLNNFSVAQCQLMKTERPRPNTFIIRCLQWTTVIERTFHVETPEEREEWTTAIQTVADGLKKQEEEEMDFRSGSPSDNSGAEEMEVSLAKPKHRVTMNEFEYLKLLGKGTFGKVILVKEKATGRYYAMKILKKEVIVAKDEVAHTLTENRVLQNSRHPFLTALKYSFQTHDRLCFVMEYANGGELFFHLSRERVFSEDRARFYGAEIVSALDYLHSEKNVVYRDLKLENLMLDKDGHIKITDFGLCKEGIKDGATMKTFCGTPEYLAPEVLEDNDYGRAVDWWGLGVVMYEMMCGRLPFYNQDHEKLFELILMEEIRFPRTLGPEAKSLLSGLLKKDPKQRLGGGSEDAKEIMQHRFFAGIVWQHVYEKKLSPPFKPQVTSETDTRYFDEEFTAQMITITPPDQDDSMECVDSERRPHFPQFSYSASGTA
The target in a further test is PIK3CA/PIK3R1 (Homo sapiens, UniProt P42336). To be noted: read-out: Percent inhibition of kinase activity in vitro, PIK3CA/PIK3R1; for inhibition at 0.1 µM: 100 nM; for inhibition at 0.5 µM: 500 nM. The protocol: as §1
Sequence of PIK3CA/PIK3R1 (P42336 whole entry): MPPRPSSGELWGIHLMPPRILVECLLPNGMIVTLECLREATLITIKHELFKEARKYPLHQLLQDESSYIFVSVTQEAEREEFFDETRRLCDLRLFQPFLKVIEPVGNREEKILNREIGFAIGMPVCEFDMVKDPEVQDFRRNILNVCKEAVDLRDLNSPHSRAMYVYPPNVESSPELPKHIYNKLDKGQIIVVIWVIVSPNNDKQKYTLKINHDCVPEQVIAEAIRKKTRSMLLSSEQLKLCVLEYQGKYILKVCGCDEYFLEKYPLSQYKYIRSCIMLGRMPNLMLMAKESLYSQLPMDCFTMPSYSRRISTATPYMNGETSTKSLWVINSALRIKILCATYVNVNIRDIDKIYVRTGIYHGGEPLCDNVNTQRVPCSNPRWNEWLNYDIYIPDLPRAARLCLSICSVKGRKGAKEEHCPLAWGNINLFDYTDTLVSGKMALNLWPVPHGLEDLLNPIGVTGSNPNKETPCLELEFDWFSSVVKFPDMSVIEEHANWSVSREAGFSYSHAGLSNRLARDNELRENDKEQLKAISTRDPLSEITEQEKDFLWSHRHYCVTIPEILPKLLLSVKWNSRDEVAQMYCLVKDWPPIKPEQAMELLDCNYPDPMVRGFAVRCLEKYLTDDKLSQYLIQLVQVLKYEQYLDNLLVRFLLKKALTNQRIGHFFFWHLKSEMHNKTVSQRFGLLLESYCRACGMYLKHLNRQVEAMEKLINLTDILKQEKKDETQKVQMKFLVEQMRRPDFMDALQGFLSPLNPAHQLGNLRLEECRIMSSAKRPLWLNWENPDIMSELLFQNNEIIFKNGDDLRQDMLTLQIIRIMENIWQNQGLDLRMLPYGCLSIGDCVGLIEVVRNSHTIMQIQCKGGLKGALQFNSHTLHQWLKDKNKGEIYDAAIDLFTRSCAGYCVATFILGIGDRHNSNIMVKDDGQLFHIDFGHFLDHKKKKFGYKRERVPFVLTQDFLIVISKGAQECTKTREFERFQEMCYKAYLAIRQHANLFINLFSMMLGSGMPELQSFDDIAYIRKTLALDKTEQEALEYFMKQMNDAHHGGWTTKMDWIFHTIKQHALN
Sequence of PIK3CA/PIK3R1 (P27986 whole entry partner): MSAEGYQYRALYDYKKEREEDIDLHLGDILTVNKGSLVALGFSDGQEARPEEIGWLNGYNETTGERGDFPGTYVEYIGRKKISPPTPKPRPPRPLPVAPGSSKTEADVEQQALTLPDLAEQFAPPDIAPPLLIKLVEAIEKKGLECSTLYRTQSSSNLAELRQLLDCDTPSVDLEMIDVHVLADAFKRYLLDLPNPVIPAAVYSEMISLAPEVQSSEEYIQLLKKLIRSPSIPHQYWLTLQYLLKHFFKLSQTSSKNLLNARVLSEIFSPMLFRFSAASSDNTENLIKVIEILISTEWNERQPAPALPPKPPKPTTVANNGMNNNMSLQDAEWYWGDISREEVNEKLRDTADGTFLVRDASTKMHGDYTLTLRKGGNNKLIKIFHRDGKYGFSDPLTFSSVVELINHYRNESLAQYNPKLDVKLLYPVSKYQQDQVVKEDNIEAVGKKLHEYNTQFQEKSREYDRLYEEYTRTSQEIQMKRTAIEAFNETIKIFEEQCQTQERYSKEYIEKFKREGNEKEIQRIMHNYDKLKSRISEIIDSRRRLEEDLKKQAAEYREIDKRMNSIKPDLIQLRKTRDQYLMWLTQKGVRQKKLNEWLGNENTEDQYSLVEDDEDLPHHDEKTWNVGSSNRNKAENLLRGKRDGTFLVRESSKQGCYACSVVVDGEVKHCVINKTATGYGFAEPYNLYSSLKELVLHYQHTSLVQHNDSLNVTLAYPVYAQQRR
In another test the target is EEF2K (Homo sapiens, UniProt O00418). To be noted: read-out: Percent inhibition of kinase activity in vitro, EEF2K; for inhibition at 0.5 µM: 500 nM; for inhibition at 0.1 µM: 100 nM. As to the method:
as §1

A further test addresses PRKCB1 (PKC beta I) (Homo sapiens, UniProt P05771). To be noted: 50 nM; read-out: Percent inhibition of kinase activity in vitro, PRKCB1 (PKC beta I). The protocol: as §1
In the next test the target is PRKCH (PKC eta) (Homo sapiens, UniProt P24723). To be noted: 50 nM; read-out: Percent inhibition of kinase activity in vitro, PRKCH (PKC eta). As to the method: as §1
The mark [1] stands for this setting: read-out: Percent inhibition of kinase activity in vitro, PRKCA (PKC alpha).

Sequence of YES1 (P07947 whole entry): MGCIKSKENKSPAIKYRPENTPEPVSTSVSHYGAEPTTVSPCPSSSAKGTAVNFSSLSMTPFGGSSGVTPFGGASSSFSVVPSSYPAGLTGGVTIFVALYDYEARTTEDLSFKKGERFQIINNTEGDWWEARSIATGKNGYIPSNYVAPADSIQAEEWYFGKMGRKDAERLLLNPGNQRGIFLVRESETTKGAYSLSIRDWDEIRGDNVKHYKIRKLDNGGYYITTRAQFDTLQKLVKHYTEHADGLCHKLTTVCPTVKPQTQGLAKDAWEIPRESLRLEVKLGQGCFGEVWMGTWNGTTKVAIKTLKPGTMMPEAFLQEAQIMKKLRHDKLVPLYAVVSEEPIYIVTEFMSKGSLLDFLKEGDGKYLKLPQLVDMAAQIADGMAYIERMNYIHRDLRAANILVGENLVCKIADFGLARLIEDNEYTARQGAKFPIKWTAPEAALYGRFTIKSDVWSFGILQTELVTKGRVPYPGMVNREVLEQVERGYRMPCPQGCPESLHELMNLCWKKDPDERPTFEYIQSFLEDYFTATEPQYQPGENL
Sequence of SRC (P12931 whole entry): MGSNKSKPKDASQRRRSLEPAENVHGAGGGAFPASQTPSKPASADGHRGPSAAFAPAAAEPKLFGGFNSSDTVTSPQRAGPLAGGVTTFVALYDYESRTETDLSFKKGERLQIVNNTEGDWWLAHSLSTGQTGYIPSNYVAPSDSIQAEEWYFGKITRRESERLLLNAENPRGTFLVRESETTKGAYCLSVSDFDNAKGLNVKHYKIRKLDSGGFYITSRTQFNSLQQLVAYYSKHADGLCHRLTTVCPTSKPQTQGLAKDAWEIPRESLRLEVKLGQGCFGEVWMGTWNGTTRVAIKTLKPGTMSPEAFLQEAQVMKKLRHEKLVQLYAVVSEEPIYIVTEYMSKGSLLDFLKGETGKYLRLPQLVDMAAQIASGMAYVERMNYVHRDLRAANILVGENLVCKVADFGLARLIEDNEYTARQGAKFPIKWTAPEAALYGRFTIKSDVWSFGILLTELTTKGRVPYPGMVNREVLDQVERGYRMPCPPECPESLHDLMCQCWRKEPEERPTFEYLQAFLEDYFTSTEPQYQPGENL

For `O=c1c2ccccc2[se]n1-c1nc(NC2CC[Se]C2)c2nc[nH]c2n1` (stereo not shown) [Compound 2], the inhibition at 0.5 µM on PDGFRA (PDGFR alpha) was determined as 4%; on PTK2 (FAK), 7%; at FRAP1 (mTOR), 5%; at ERBB2 (HER2) it was 0%; on AURKC (Aurora C), 11%; on PRKCA (PKC alpha) (setting [1]), 96%. Moreover, the inhibition at 0.5 µM on RET amounted to 18%; at FGFR1, 0%; at MET (cMet), 5%; on EGFR (ErbB1) it was 0%; on JAK2, 13%; at YES1, 35%. The inhibition at 0.5 µM turned out to be 7% on SRC, 15% on AKT1 (PKB alpha), 62% at PIK3CA/PIK3R1 and 11% on EEF2K. Also, the inhibition at 0.1 µM on PTK2 (FAK) is 5%; on AURKC (Aurora C) it was 0%; on BRAF-ZLYTE-100, 0%; at PRKCA (PKC alpha) (setting [1]) it was 84%; on RET it was 6%; on MET (cMet), 1%. Besides, the inhibition at 0.1 µM on JAK2 is 15%; at YES1, 22%; at SRC, 4%; on AKT1 (PKB alpha), 4%; at PIK3CA/PIK3R1, 0%.
With `C[C@@H]1C(Nc2nc(-n3[se]c4ccccc4c3=O)nc3[nH]cnc23)C[C@H]2C[C@@H]1C2(C)C` (stereo partly shown) [Compound 3], the inhibition at 0.5 µM worked out at 5% on PDGFRA (PDGFR alpha); 8% at PTK2 (FAK); 1% on FRAP1 (mTOR); 2% at ERBB2 (HER2); 7% at AURKC (Aurora C); 86% on PRKCA (PKC alpha) (setting [1]). Further, the inhibition at 0.5 µM on RET is 36%; on FGFR1 it was 13%; at MET (cMet) it was 17%; at EGFR (ErbB1), 0%; on JAK2, 11%; at YES1, 53%. Further, the inhibition at 0.5 µM came to 7% at SRC, 29% on AKT1 (PKB alpha), 53% at PIK3CA/PIK3R1 and 5% on EEF2K. Besides, the inhibition at 0.1 µM on PTK2 (FAK) stood at 0%; on AURKC (Aurora C), 0%; at BRAF-ZLYTE-100, 0%; on PRKCA (PKC alpha) (setting [1]), 45%; on RET, 5%; on MET (cMet), 0%. For the same molecule, the inhibition at 0.1 µM at JAK2 stood at 13%; on YES1, 17%; at SRC, 4%; on AKT1 (PKB alpha), 1%; on PIK3CA/PIK3R1, 12%.
One may read the IC50 as the concentration at which inhibition is half-maximal. A high value points to a need for much substance. `O=c1c2ccccc2[se]n1-c1nc(N[C@H]2CC[Se]C2)c2nc[nH]c2n1` [Compound 4]: the inhibition at 0.1 µM on PDGFRA (PDGFR alpha) came out at 1%; on PTK2 (FAK) it was 1%; at FRAP1 (mTOR) it was 8%; at AURKC (Aurora C), 0%; at BRAF-ZLYTE-100, 0%; on PRKCA (PKC alpha) (setting [1]), 98%. Moreover, the inhibition at 0.1 µM at RET turned out to be 10%; on FGFR1, 0%; at MET (cMet), 4%; on EGFR (ErbB1), 0%; on JAK2, 18%; at YES1, 24%. Moreover, the inhibition at 0.1 µM was determined as 4% at SRC, 4% on AKT1 (PKB alpha), 0% on PIK3CA/PIK3R1 and 10% on EEF2K. Besides, the inhibition at 0.01 µM on PRKCA (PKC alpha) (10 nM, read-out: Percent inhibition of kinase activity in vitro, PRKCA (PKC alpha)) stood at 22%. In addition, the results for the inhibition at 0.05 µM on PRKCA (PKC alpha) (setting [1]), on PRKCB1 (PKC beta I) and on PRKCH (PKC eta) were 101%, 95% and 6%, respectively. Moreover, on PRKCA (PKC alpha) (from inhibition levels at 500, 100, 50 and 10 nM), the IC50 stood at 10.9 nM.
Regarding `O=C1c2ccccc2CN1c1nc(NC2CCCCC2)c2nc[nH]c2n1` [SLLN-6C, reference compound], the inhibition at 0.1 µM was 0% on PDGFRA (PDGFR alpha); 3% at PTK2 (FAK); 0% on FRAP1 (mTOR); 0% at AURKC (Aurora C); 1% on BRAF-ZLYTE-100; 0% on PRKCA (PKC alpha) (setting [1]). Further, the inhibition at 0.1 µM on RET turned out to be 6%; on FGFR1, 0%; at MET (cMet), 0%; on EGFR (ErbB1) it was 4%; on JAK2, 7%; at YES1 it was 5%. The inhibition at 0.1 µM on SRC was 3%; on AKT1 (PKB alpha), 2%; at PIK3CA/PIK3R1, 0%; at EEF2K it was 1%. In addition, the inhibition at 0.05 µM is 14% on PRKCA (PKC alpha) (setting [1]), 5% on PRKCB1 (PKC beta I) and 0% at PRKCH (PKC eta).
